In paper PMC7932537, “Quantitative profiling of protease specificity” (PLoS Computational Biology, 2021):

Tests used:
MMP-2 = assay: N-terminomic (TMT) analysis of MMP-treated HEK293 secretome: isotopic enrichment of novel N-termini; type: biochemical, human; settings: for isotopic enrichment (log2(ratio)): MMP2 cleavages in HEK293 cell proteins, determined by LC-MS/MS, novel N-termini, sections log2(ratio) >3σ, 2σ-3σ, 1σ-2σ, RP above 4.5
Method: (§1) This was done to achieve a reasonable compromise between the false positive and false negative rates based on the statistical model developed by the authors. […] (See Methods for details).
(§2) HEK293 cells were seeded in 150-mm tissue culture dishes (Corning) and grown to confluence. The confluent cultures were washed with PBS several times to remove serum proteins and kept in serum-free DMEM supplemented with 1 μM GM6001 for 72 hours at 37 C, 5% CO2. The conditioned media was centrifuged at 10,000 x g for 30 minutes at 4 C and concentrated ~100-fold using Centricon Plus-70 (AMD Millipore) 3-kDa m.w. cut-off ultrafilter, and the buffer was exchanged to 50 mM HEPES pH 7.0 containing 150 mM NaCl and 10 mM CaCl2 (Reaction Buffer) using a PD-10 desalting column (GE Healthcare). Aliquots containing 240 μg total protein were incubated at 37 C in the presence of 750 nM MMP2 or 9 or the Reaction Buffer alone for 2 hours. Each reaction was carried out in duplicate. The reactions were stopped by addition of 20 mM EDTA and subjected to denaturation/reduction (4M Urea and 10 mM TCEP, 1 h, 22°C) and alkylation (20 mM iodoacetamide, 30 min, 22°C, in dark). […] The TMT-labeled samples were pooled together, and subjected to TCA precipitation (20% TCA, 16 h, 4°C). Each pellet was washed with -20°C acetone, recovered in 50 mM Tris-HCl pH 8.0, and then digested with trypsin/Lys-C (Promega) for 16 h at 37°C. Digestions were stopped with 0.2% TFA and centrifuged to remove insoluble material. The supernatants were then desalted using Sep-Pak C18 cartridge (50 mg), and then lyophilized.
(§3) Dried pooled sample was reconstituted in 20 mM ammonium formate pH ~10 and fractionated using a Waters Acquity BEH C18 column (2.1x 15 cm, 1.7 μm pore size) mounted on an M-Class Ultra Performance Liquid Chromatography (UPLC) system (Waters). […] A total of 32 fractions were collected and pooled in a non-contiguous manner into 16 total fractions. Pooled fractions were dried to completeness in a SpeedVac concentrator prior to mass spectrometry analysis.
(§4) Dried peptide fractions were reconstituted with 2% ACN-0.1% FA and analyzed by LC-MS/MS using a Proxeon EASY nanoLC system (Thermo Fisher Scientific) coupled to a Q-Exactive Plus mass spectrometer (Thermo Fisher Scientific). […] The mass spectrometer was operated in positive data-dependent acquisition mode. MS1 spectra were measured with a resolution of 70,000 (AGC target: 1e6; mass range: 350–1700 m/z).
(§5) The false discovery rate (FDR) filter for spectrum and protein identification was set to 1%. Carbamidomethylation of cysteines was searched as a fixed modification, while oxidation of methionines and N-terminal acetylation were searched as variable modifications. Enzyme was set to trypsin in a semispecific mode and a maximum of two missed cleavages was allowed for searching. To obtain quantification of the TMT-labeled N-termini, two independent searches were performed–one with TMT10plex MS2 N-terminal reporter quantification and the other for quantification of N-terminal and lysine sidechain.

MMP-9 = assay: as above; type: biochemical, human; settings: for isotopic enrichment (log2(ratio)) (acc.to MMP9): HEK293 proteins; for isotopic enrichment (log2(ratio)): MMP9 cleavages in HEK293 cell proteins, determined by LC-MS/MS, log2(ratio) range (>3σ, 2σ-3σ, 1σ-2σ)
Method: as §1, §2, §3, §4, §5

[1] = MS detected cleavage sequence, HEK293 proteins, unique part of MMP2 selectome
[2] = MS detected cleavage sequence, unique part of MMP2 selectome
[3] = MMP2 cleaved HEK293 proteins, common set of MMP2-9 selectome, LC-MS/MS
[4] = MS detected cleavage sequence, HEK293 proteins, common MMP2-9 selectome
[5] = MMP9, common set of MMP2-9 selectome, LC-MS/MS
[6] = MS detected cleavage sequence, common MMP2-9 selectome

Row | Substance | isotopic enrichment (log2(ratio)) (acc.to MMP2) (MMP-2; [1]) | isotopic enrichment (log2(ratio)) (acc.to MMP9) (MMP-9; [2]) | isotopic enrichment (log2(ratio)) (acc.to MMP2) (MMP-2; [3]) | isotopic enrichment (log2(ratio)) (acc.to MMP2) (MMP-2; [4]) | isotopic enrichment (log2(ratio)) (acc.to MMP9) (MMP-9; [5]) | isotopic enrichment (log2(ratio)) (MMP-9) | isotopic enrichment (log2(ratio)) (acc.to MMP9) (MMP-9; [6]) | isotopic enrichment (log2(ratio)) (MMP-2)
1 | NFWGA-LSADGY | 1.683 log2(ratio) | 0.9855 log2(ratio) |  |  |  |  |  | 
2 | MVPRA-VYLPNC |  |  | 1.989 | 1.989 log2(ratio) | 2.491 | 2.491 | 2.491 log2(ratio) | 
3 | EHPVL-LTEAPL |  |  |  | 1.599 log2(ratio) |  | 3.462 | 3.462 log2(ratio) | 
4 | PEPPP-LSGAPQ |  |  | 1.367 | 1.367 log2(ratio) | 1.9855 | 1.9855 | 1.9855 log2(ratio) | 
5 | TDPSK-LDSGKE |  |  | 1.911 | 1.911 log2(ratio) | 2.9782 | 2.9782 | 2.9782 log2(ratio) | 
6 | EEPLN-VGSVAA |  |  | 2.637 | 2.637 log2(ratio) | 3.642 | 3.642 | 3.642 log2(ratio) | 
7 | SDPLT-LLQADT |  |  | 1.22 | 2.4906 log2(ratio) | 2.254 | 2.254 | 2.254 log2(ratio) | 1.22 log2(ratio)
8 | SSPRH-SEAATA |  |  | 3.599 | 3.599 log2(ratio) | 4.654 | 4.654 | 4.654 log2(ratio) | 
9 | GRSAP-LAAGCP | 3.5097 log2(ratio) | 3.246 log2(ratio) |  |  |  |  |  | 
10 | RTLRA-VCGQPG |  |  |  | 0.2987 log2(ratio) |  | 1.47 | 1.47 log2(ratio) | 
11 | TQQAQ-LAAAAE | 2.74 log2(ratio) | 0.8319 log2(ratio) |  |  |  |  |  | 
12 | LPAMP-MQGGAQ |  |  | 3.329 | 3.329 log2(ratio) | 3.876 | 3.876 | 3.876 log2(ratio) | 
13 | IFLRE-LISNAS |  |  | 1.176 | 1.176 log2(ratio) | 1.628 | 1.628 | 1.628 log2(ratio) | 
14 | VLPVN-VTDYCQ |  |  |  | 0.7225 log2(ratio) |  | 3.756 | 3.756 log2(ratio) | 
15 | DAPRA-VFPSIV |  |  | 1.669 | 1.669 log2(ratio) | 1.811 | 1.811 | 1.811 log2(ratio) | 
16 | VNPVL-LSGPEA |  |  | 1.599 | 1.599 log2(ratio) | 2.457 | 2.457 | 2.457 log2(ratio) | 
17 | YNPMA-LYGSVP |  |  |  | 0.669 log2(ratio) |  | 1.709 | 1.709 log2(ratio) | 
18 | SLARA-YSSFNP |  |  | 2.269 | 2.269 log2(ratio) | 2.539 | 2.539 | 2.539 log2(ratio) | 
19 | KYIGN-MHGNEA |  |  | 1.124 |  | 1.07 |  |  | 1.124 log2(ratio)

Row | Substance | isotopic enrichment (log2(ratio)) (acc.to MMP2) (MMP-2; [1]) | isotopic enrichment (log2(ratio)) (acc.to MMP9) (MMP-9; [2]) | isotopic enrichment (log2(ratio)) (acc.to MMP2) (MMP-2; [3]) | isotopic enrichment (log2(ratio)) (acc.to MMP2) (MMP-2; [4]) | isotopic enrichment (log2(ratio)) (acc.to MMP9) (MMP-9; [5]) | isotopic enrichment (log2(ratio)) (MMP-9) | isotopic enrichment (log2(ratio)) (acc.to MMP9) (MMP-9; [6]) | isotopic enrichment (log2(ratio)) (MMP-2)
20 | SSAAA-LSLCEG |  |  | 1.036 |  | 0.3785 |  |  | 1.036 log2(ratio)
21 | AGARG-IQGPQG |  |  |  | 0.8156 log2(ratio) |  | 1.521 | 1.521 log2(ratio) | 
22 | ARPNS-MVVEHP |  |  | 2.409 | 2.409 log2(ratio) | 3.297 | 3.297 | 3.297 log2(ratio) | 
23 | SHLGR-YLAADK | 2.483 log2(ratio) | -1.0291 log2(ratio) |  |  |  |  |  | 
24 | TRPLA-VEVVTE |  |  | 4.353 | 4.353 log2(ratio) | 4.995 | 4.995 | 4.995 log2(ratio) | 
25 | PQAKA-LLQDKD |  |  |  | 0.9928 log2(ratio) | 1.48 | 1.48 | 1.48 log2(ratio) | 
26 | DMIDN-LLSPDL | 1.245 log2(ratio) | 1.029 log2(ratio) |  |  |  |  |  | 
27 | VVPFG-VPASAT |  |  |  | 0.189 log2(ratio) |  | 2.014 | 2.014 log2(ratio) | 
28 | GMPGE-ISEHEG |  |  | 2.198 | 2.198 log2(ratio) | 2.131 | 2.131 | 2.131 log2(ratio) | 
29 | ADIAF-LIDGSF |  |  | 1.124 |  | 0.8797 |  |  | 1.124 log2(ratio)
30 | GEVQA-MLGQST |  |  |  | 0.5656 log2(ratio) |  | 1.4957 | 1.4957 log2(ratio) | 
31 | ETAIN-ITTYPD |  |  | 1.84 | 1.84 log2(ratio) | 2.536 | 2.536 | 2.536 log2(ratio) | 
32 | PALAY-LASAPP | 1.345 log2(ratio) | 0.4436 log2(ratio) |  |  |  |  |  | 
33 | GSPDA-LQNPCY |  |  |  | 0.926 log2(ratio) |  | 3.536 | 3.536 log2(ratio) | 
34 | MPMF-IVNTNV |  |  |  | 0.8319 log2(ratio) |  | 1.66 | 1.66 log2(ratio) | 
35 | EAPRP-YSKQVS |  |  | 1.239 | 1.239 log2(ratio) | 1.531 | 1.531 | 1.531 log2(ratio) | 
36 | VAAKN-LQEAEE |  |  | 1.485 | 1.485 log2(ratio) | 2.192 | 2.192 | 2.192 log2(ratio) | 
37 | PTAAA-IAYGLD |  |  | 1.585 |  | 0.8074 |  |  | 1.585 log2(ratio)
